Consider two compounds from patent US9878984B2, “Anti-cancer compounds” (NORTHWESTERN UNIVERSITY, priority 2008, dated 2018).

Each structure is given as a SMILES string.

The test system of assay [1] is pBR322 plasmid DNA. The assay is described as follows: DNA intercalation assay (topoisomerase I based plasmid DNA unwinding). It is filed as biochemical. The note with it: 10, 31.6, and 100 μM, human topoisomerase I. On the procedure:
DNA Intercalation Assay: A DNA unwinding assay was performed as previously described with minor modifications. Four Units of recombinant wild type human topoisomerase I (Topogen—Port Orange, Fla.) were incubated with reaction buffer (included with enzyme), ˜0.5 μg of pBR322 plasmid DNA, which is a mixture of form I and form II plasmid DNA, and water added to a final volume of 19 μL. The reactions were incubated at 37° C. for 30 min and then 1 μL of each compound was added to give a final concentration of 10, 31.6, and 100 μM (final solvent concentration of 1% DMSO) and the reaction mixture was incubated at 37° C. for another 30 min. The reaction was stopped by the addition of 5 μL gel loading dye. The samples were immediately loaded onto a 1% agarose gel and electrophoresis was performed at 50 V for 3 h at room temperature. Pictures of the gels were obtained using a Kodak Image Station 440 CF (Kodak—Rochester, N.Y.) equipped with a UV source.
This activity depends on the ability of these compounds to intercalate DNA, which is the proposed mechanism of cytotoxic action of amonafide and its analogs. Therefore, the intercalation of plasmid DNA by A1-A9 was compared with the intercalation by amonafide to determine if they behave similarly. A topoisomerase I (topo I) based plasmid DNA unwinding assay was used to determine the intercalation of each compound [1]. […]

For assay [2], the system named is Normal cells (PBMC, HUVEC, and WI-38). Kind of assay: Cancer cell selective growth inhibition (cancer cells vs normal cells). It is filed as cell-based, human. The note with it: 72 hr MTS. On the procedure:
[…] Peripheral blood mononuclear cells (PBMCs) were voluntarily collected from a healthy laboratory worker by standard sterile phlebotomy techniques and isolated using Vacutainer CPT collection tubes (BD Biosciences—Bedford, Mass.). PBMCs were isolated freshly for each experiment. All DMEM and RPMI-1640 media was supplemented with 10% FBS (Atlanta Biologicals—Lawrenceville, Ga.) and 100 U/mL penicillin and streptomycin (Invitrogen). HUVEC (Human umbilical vein endothelial cells) were cultured in EGM-2 media with supplements provided in the manufacturers BulletKit (Lonza—Walersville, Md.). All cells were maintained at 37° C. and in a 5% CO2 atmosphere.
Growth Inhibition Assays: HeLa, MDA-MB-231, PC-3M, WI-38, and HUVEC cells were plated at 5,000 cells per well in 96 well plates and allowed to attach for 20 hr (8 hr for HeLa). The media was removed and 198 μL of fresh media was added to each well. […] PBMCs were isolated and plated at 100,000 per well in 96 well plates with a volume of 197 μL. They were allowed to settle in the media for 20 hr, at which point 1 μL of 1 mg/mL phytohemagglutinin (Sigma—St. Loius Mo.) in PBS was added to stimulate proliferation (final concentration of 5 μg/mL). […] Cell proliferation was measured at t=0 (time at start of treatment) and t=72 hr using MTS AQueous non-radioactive proliferation assay (Promega—Madison, Wis.). This assay utilizes the metabolic conversion of yellow tetrazolium to a purple formazan by live cells and the color change is proportional to the number of cells. […] The absorbance at 490 nm in each well was read with a Spectramax 250 plate reader (Molecular Devices—Sunnyvale, Calif.). […] Data were fit to one site dose response curves in order to obtain specific growth inhibitory concentrations and the relative standard errors of the mean for these concentrations were calculated by the XLfit4 software. Statistical significance (p value) for the selectivity and all subsequent assays was determined with the two tailed homoscedastic Student's t-test. […]

For assay [3], the system named is Chk2. Kind of assay: DNA damage response assay (pThr68-Chk2 / total Chk2 western blot). It is filed as cell-based, human. The note with it: HeLa cells, [GI99%], 20 hr, normalized to mitoxantrone. On the procedure: DNA Damage Response Assay: 250,000 HeLa cells were plated in 35 mm culture dishes and allowed to attach for 8 hr and were then treated with the [GI99%] of each compound for 20 hr (total media volume was […] with 1% DMSO). After treatment cells were lysed in 150 μL detergent buffer containing 1:100 v/v protease inhibitor cocktail (Sigma—St. Louis, Mo.). Lysates were run on denaturing 12% acrylamide gels and transferred to nitrocellulose membranes. The membranes were blocked in blotto, incubated in anti-pThr68-Chk2 antibody (Cell Signaling—Danvers, Mass.) at 1:500 v/v dilution in blotto overnight 4° C., washed, incubated in HRP conjugated anti-rabbit secondary antibody (Jackson) at 1:5,000 v/v dilution in blotto for 1 hr, and then developed. The membranes were then stripped with a reducing buffer, blocked in blotto, incubated in anti-Chk2 antibody (Biolegend—San Diego, Calif.) at 1:500 v/v dilution in blotto overnight at 4° C., washed, incubated in HRP conjugated anti-mouse secondary antibody (Jackson) at 1:5,000 v/v dilution in blotto for 1 hr, and then developed. Membranes were developed with PicoWest Developing Solution (Pierce) and exposed to film. The intensities of bands were quantified as described in the previous section. The data are expressed as the average ratio of pThr68-Chk2 to total Chk2 as normalized to the mitoxantrone control in each of three independent experiments.
Topoisomerase inhibition by most mechanisms should cause activation of DNA damage response pathways because of the production of single and double strand DNA breaks, as is the case with amonafide. […] Therefore, measuring the DNA damage response at a fixed cytotoxic dose ([GI99%]) will determine the extent that DNA damage contributes to the cytotoxicity of these compounds. […] Activation of Chk2 was determined by measuring the ratio of pThr68-Chk2 to total Chk2 in HeLa cells treated with the [GI99%].
(In general: In western blotting, separated proteins are transferred to a membrane and probed.)

Assay [4] concerns HeLa, PC-3M, and MDA-MB-231. The assay is described as follows: MTS growth inhibition assay, human cancer cell lines. The note with it: 72 hr, MTS proliferation assay. It is filed as cell-based. On the procedure:
Cell Culture: HeLa (cervical carcinoma), WI-38 (normal human […] fibroblasts), and MDA-MB-231 (breast carcinoma), cells were cultured in DMEM (Invitrogen—Carlsbad, Calif.) and PC-3M (metastatic prostate carcinoma) cells were cultured in RPMI-1640. Peripheral blood mononuclear cells (PBMCs) were voluntarily collected from a healthy laboratory worker by standard sterile phlebotomy techniques and isolated using Vacutainer CPT collection tubes (BD Biosciences—Bedford, Mass.). PBMCs were isolated freshly for each experiment. All DMEM and RPMI-1640 media was supplemented with 10% FBS (Atlanta Biologicals—Lawrenceville, Ga.) and 100 U/mL penicillin and streptomycin (Invitrogen). […]
Growth Inhibition Assays: HeLa, MDA-MB-231, PC-3M, WI-38, and HUVEC cells were plated at 5,000 cells per well in 96 well plates and allowed to attach for 20 hr (8 hr for HeLa). […] Cell proliferation was measured at t=0 (time at start of treatment) and t=72 hr using MTS AQueous non-radioactive proliferation assay (Promega—Madison, Wis.). […] The absorbance at 490 nm in each well was read with a Spectramax 250 plate reader (Molecular Devices—Sunnyvale, Calif.). […] Data were fit to one site dose response curves in order to obtain specific growth inhibitory concentrations and the relative standard errors of the mean for these concentrations were calculated by the XLfit4 software. […]

In assay [5] the test system is HeLa cells. Kind of assay: Transwell invasion assay. The settings on record: [GI99%], matrigel, 20 hr. It is filed as cell-based, human. On the procedure: Transwell Invasion Assay: HeLa cells were plated at 250,000 per 35 mm well and allowed to attach for 8 hr. The cells were washed with PBS and then treated for 4 hr with the [GI99%] of each compound (or 1% DMSO—vehicle control) in serum free media to decrease the number of invading cells in the beginning of the experiment due to a preliminary lack of drug exposure. The cells were then trypsinized and counted by trypan blue exclusion with a hemacytometer (Sigma—St. Louis, Mo.). Eight micron pore size control well inserts for 12 well plates (BD Biosciences) were coated with 100 μL 1 mg/mL matrigel (Sigma—St. Louis, Mo.) and allowed to solidify at room temperature for 1 hr. The excess matrigel was aspirated and the inserts were gently washed with PBS. The cells were seeded at a density of 300,000 per insert well in a volume of 500 μL serum free media containing a derivative or vehicle. The inserts were then placed in wells containing 700 μL serum free media with the respective compound. After 20 hr the cells on the top of the membranes were gently removed with a cotton swab, the membranes then were fixed in methanol for 1 min, stained in Gills No. 3 Hematoxylin (Sigma—St. Louis, Mo.) for 5 min, rinsed in tap water, and allowed to dry overnight. The membranes were excised, mounted on slides, and the cells were counted under the 40× objective of a bright field microscope. The data are expressed as the average total number of invading cells counted in 20 fields of each membrane, as standardized to the vehicle control, from six experiments.
Effect of derivatives on the malignant phenotype—invasion assay: If A1-A9 have differential targets, DNA binding specificity, or downstream effects they may differentially alter the malignant behavior of cells. Also, anti-cancer compounds can be efficacious against tumors in other ways besides inhibiting growth and inducing death of cancer cells; they can also alter the behavior of malignant cells. Therefore, the ability of A1-A9 and amonafide to alter the invasive behavior of cancer cells in a transwell (also known as Boyden chamber) invasion assay was evaluated, which determines the ability of cells to migrate through a proteinacious gel. This behavior is considered to be representative of cancer cell invasion through the basement membrane of the primary tumor environment. In this assay, treated cells are seeded on to the top of the matrigel-coated porous membrane, allowed to invade through the proteinacious gel onto the underside of the membrane, and then counted.

For `CCCCCCNc1ccc2c3c(cccc13)C(=O)N(CCN(C)C)C2=O` [A5, 6-hexylamino-2-[2-(dimethylamino)ethyl]-1H-benz[de]isoquinoline-1,3(2H)-dione], the DNA intercalation entry in assay [1] is “intercalates much less than the other compounds”. Moreover, the “cancer cell selective growth inhibition (selectivity)” value in assay [2] was “doing so significantly (p<0.05)”.

With `CN(C)CCN1C(=O)c2cccc3cccc(c23)C1=O` [A9, 2-[2-(dimethylamino)ethyl]-1H-benz[de]isoquinoline-1,3(2H)-dione], the “DNA damage response (ratio of pThr68-Chk2 to total Chk2)” value in assay [3] was “evoked the strongest DNA damage response”. In assay [4], the growth inhibition potency result is recorded as “still remains fairly potent”. Further, the “invasive behavior (% invading cells vs vehicle)” value in assay [5] is listed as “decreases invasive behavior”.
